Patent US12479816B2, “20-HETE formation inhibitors” (UNIVERSITY OF PITTSBURGH—OF THE COMMONWEALTH SYSTEM OF …, priority 2019, dated 2025)
Where two headings read alike, the source gives them in different places.

Assays:
[1] = test system: 20-HETE formation (CYP4) in HLM; assay: Inhibition of 20-HETE formation at 250 or 500 nM in HLM microsomal incubations; format: biochemical, human; conditions: 500 nM compound; HLM 300 μg/ml, AA 100 μM, 20 min
Summary of the method: (§1)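 Liver or kidney microsomes (300 μg/ml) or rCYP4F2 (25 pmol/mL) were incubated with 100 μM arachidonic acid, 1 mM NADPH and compound at 250 or 500 nM in 0.12 M potassium phosphate/5 mM MgCl2 for 20 min at 37 °C. 20-HETE was measured by UPLC-MS/MS against 20-HETE-d6 and expressed as % of vehicle (n=3).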

[2] = Turbidometric solubility determination; format: physicochemical; conditions: PBS with 1% DMSO, aqueous buffer, kinetic from dmso stock, room temperature
Summary of the method: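 Kinetic turbidimetric solubility: DMSO stocks diluted 1:100 into PBS in triplicate to give 0–600 μM in 1% DMSO. Shaken 2 h at room temperature, then OD620 read. Solubility limit taken as the concentration giving a statistically significant absorbance rise above background.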

[3] = test system: formation of EETs and DiHETs (epoxygenase activity) in HLM; assay: Selectivity: inhibition of EETs and DiHETs formation (epoxygenase activity) in HLM; format: biochemical, human; conditions: for IC50: sum of EETs and DiHETs
Protocol: Selectivity of compounds for inhibition of 20-HETE formation vs inhibition of formation of 8,9-, 11,12-, 14,15-EET and 5,6-, 8,9-, 11,12-, 14,15-DiHETs was assessed via the simultaneous monitor of formation of 20-HETE and those metabolites under the UPLC-MS/MS assay conditions described above using HLM incubations and the same 12 test compound concentrations (0.1 nM-[…]) used for the IC50 determination experiments. At each of the 12 concentrations, the selectivity of 20-HETE inhibition over the other metabolites was compared. Epoxygenase activity was assessed by the sum of EETs and DiHETEs as percentage of control.

[4] = test system: 20-HETE formation (CYP4) in RKM; assay: Inhibition of 20-HETE formation at 250 or 500 nM in RKM microsomal incubations; format: biochemical, rat; conditions: 500 nM compound; RKM 300 μg/ml
Summary of the method: as §1

rCYP4F2 = molecular target: T1, rCYP4F2 (Homo sapiens, UniProt P78329); assay: Inhibition of 20-HETE formation at 250 or 500 nM in rCYP4F2 incubations; format: biochemical; conditions: 500 nM compound; rCYP4F2 25 pmol/mL; read-out: rCYP4F2 % inh. @ 500 nM
T1 sequence (P78329 5-520): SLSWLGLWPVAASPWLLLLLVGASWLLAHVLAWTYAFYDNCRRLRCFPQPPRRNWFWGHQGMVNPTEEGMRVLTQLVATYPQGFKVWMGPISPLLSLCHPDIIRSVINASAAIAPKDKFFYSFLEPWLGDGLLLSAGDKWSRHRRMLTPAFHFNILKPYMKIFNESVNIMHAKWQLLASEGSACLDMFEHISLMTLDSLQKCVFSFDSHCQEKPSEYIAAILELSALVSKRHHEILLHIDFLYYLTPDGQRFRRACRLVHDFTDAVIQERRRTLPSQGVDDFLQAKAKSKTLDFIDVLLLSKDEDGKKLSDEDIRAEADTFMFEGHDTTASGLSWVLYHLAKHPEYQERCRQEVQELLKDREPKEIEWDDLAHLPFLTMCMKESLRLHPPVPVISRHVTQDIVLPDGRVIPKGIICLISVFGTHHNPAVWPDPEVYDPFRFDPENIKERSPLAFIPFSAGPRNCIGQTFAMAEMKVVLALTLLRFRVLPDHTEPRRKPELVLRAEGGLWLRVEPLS
Summary of the method: as §1

[5] = test system: 20-HETE formation (CYP4) in HLM; assay: IC50 determination, 20-HETE formation in HLM; format: biochemical, human; conditions: HLM 300 μg/ml, AA 100 μM, 12 concentrations
Protocol: (§2) Microsomal incubations contained HLM, RLM (300 μg/ml), AA (100 μM), NADPH (1 mM) and test compounds at 12 concentrations (0.1 nM-50 μM) in a 1 ml total volume in microsomal incubation buffer (0.12 M potassium phosphate buffer containing 5 mM magnesium chloride). Reaction was started by adding NADPH to the incubates and was carried out at 37° C. in a shaking water bath for 20 min. Reaction was stopped by placing tubes on ice, followed by adding 12.5 μl 20-HETE-d6 as internal standard to each sample. Microsomal incubations were extracted with 3 ml ethyl ether twice, dried down under nitrogen gas and reconstituted in 125 μl 80:20 methanol:deionized H2O for analysis. 20-HETE formation was quantified using the validated UPLC-MS/MS assay described above and normalized by vehicle group. HET0016 (250 nM) was used as positive control. Incubates without NADPH group served as the negative control. IC50 was determined by fitting the dose-response curve using Graphpad Prism nonlinear regression.

[6] = test system: 20-HETE formation (CYP4) in RLM; assay: Inhibition of 20-HETE formation at 250 or 500 nM in RLM microsomal incubations; format: biochemical, rat; conditions: 500 nM compound; RLM 300 μg/ml
Summary of the method: as §1

[7] = HLM stability determination; format: in vitro ADME, human; conditions: HLM 500 μg/ml, 1 μM compound, NADPH, relative to 0 min
Protocol: HLM stability determinations shown in Table 3 were obtained as follows. Microsomal incubates contained HLM (500 μg/ml), test compounds (1 μM) and NADPH (1.3 mM) in a 1 ml total volume of microsomal incubation buffer (0.12 M potassium phosphate buffer containing 5 mM magnesium chloride). Reaction was started by adding NADPH to the incubates and was carried out at 37° C. in a shaking water bath for 60 min. At 0, 15, 30, 45, 60 min, a 50 μl aliquot of incubates was taken out and reaction was stopped by adding aliquot into 200 μl ice-cold acetonitrile. After centrifugation at 14000×g for 5 min, 200 μl supernatant was taken out for UPLC-MS/MS analysis as described above. Values at 0 min were used as corresponding control for test compounds. Varapamil, metoprolol, and warfarin, categorized as fast, moderate and slow metabolism, were used as positive control. Incubates without NADPH group served as negative control.

[8] = test system: 20-HETE formation (CYP4) in RLM; assay: IC50 determination, 20-HETE formation in RLM; format: biochemical, rat; conditions: RLM 300 μg/ml, AA 100 μM, 12 concentrations
Protocol: as §2

Compound	HLM % inh. @ 500 nM [1] [%]	solubility at 2 h ([2]; OD620, read-out: Max Solub) [µM]	solubility at 2 h ([2]; read-out: Solubility_ug/mL) [µg/mL]	EETs Inhibition, % @ 50,000 ([3]; at 50,000 (nM per column head))	RKM % inh. @ 500 nM [4] [%]	inhibition at 0.5 µM (rCYP4F2) [%]	IC50 [5] [µM]	RLM % inh. @ 500 nM [6] [%]	IC50 [3] [nM]	Stability HLM % @ 30 min [7] [%]	IC50 [8] [nM]
COc1cccc(C2CCN(c3ccn[nH]3)CC2)c1 [Compound 7, 4-(3-Methoxyphenyl)-1-(1H-pyrazol-5-yl)piperidine]	51.70	494	127	2.6% @ 50,000	0.00	6.5	0.19	42.30	–	–	–
c1ccc(CC2CCN(c3ccn[nH]3)CC2)cc1 [Compound 2, 4-Benzyl-1-(1H-pyrazol-5-yl)piperidine]	59.90	–	–	–	0.00	47.6	0.15	0.00	> 50000	61	–
COc1ccc(C2CCN(c3cn[nH]c3)CC2)cc1F [Compound 44, 4-(3-Fluoro-4-methoxyphenyl)-1-(1H-pyrazol-4-yl)piperidine]	85.00	–	–	–	21.00	86	0.05	42.00	–	100	340
COc1ccc(C2CCN(c3cn[nH]c3)CC2)c(F)c1 [Compound 47, 4-(2-Fluoro-4-methoxyphenyl)-1-(1H-pyrazol-4-yl)piperidine]	82.00	–	–	–	0.00	88	0.08	63.00	–	100	–
Cc1ccc(C2CCN(c3cn[nH]c3)CC2)cc1 [Compound 24, 1-(1H-Pyrazol-4-yl)-4-(p-tolyl)piperidine]	73.80	85.4	20.6	–	–	79.9	0.08	16.30	–	92	–
COc1cncc(C2CCN(c3cn[nH]c3)CC2)c1 [Compound 59, 3-(1-(1H-Pyrazol-4-yl)piperidin-4-yl)-5-methoxypyridine]	63.30	> 600	155	–	–	73.7	0.19	64.40	–	98	–
CCS(=O)(=O)c1ccc(C2CCN(c3ccn[nH]3)CC2)cc1 [Compound 58, 4-(4-(Ethylsulfonyl)phenyl)-1-(1H-pyrazol-5-yl)piperidine]	67.40	394	126	–	–	70.6	0.11	0.00	–	97	–
CC(=O)Nc1ccc(C2CCN(c3cn[nH]c3)CC2)cc1 [Compound 30, N-(4-(1-(1H-Pyrazol-4-yl)piperidin-4-yl)phenyl)acetamide]	86.00	482	137	–	40.00	95	0.05	37.00	–	0	–
c1ccc(SC2CCN(c3cn[nH]c3)CC2)cc1 [Compound 40, 4-(Phenylthio)-1-(1H-pyrazol-4-yl)piperidine]	65.80	95.5	24.8	–	–	75.9	0.1	7.80	–	82	–
COc1cccc(C2CCN(c3cn[nH]c3)CC2)c1 [Compound 8, 4-(3-Methoxyphenyl)-1-(1H-pyrazol-4-yl)piperidine]	62.70	111	29	–	0.00	48.9	0.17	45.50	> 50000	–	–
